Results taken from patent US20260098061A1, “EPHA2-BINDING PENDING PEPTIDE AND COMPOSITION COMPRISING SAME” (PeptiDream Inc., priority 2022, published 2026).
Numbered stars: 1 amine (or outer) side, 2 acyl side, 3 side chain; on linkers, the order of the positions; unused ones are H or OH. Bridge positions count the residues as written; N and C are the ends. Square brackets hold non-standard residues; d marks the D form. Side chains are listed from the residue outwards. Peptide text beside a SMILES is read from it. * marks the point of attachment. X1 = CC(C)C[C@H](CC(=O)[C@H](CC(N)=O)N[*:1])C(=O)[*:2]; Piperazinyl(4-CH2COOH) = O=C(O)CN1CCN(*)CC1; Trp(1-Me) = Cn1cc(C[C@H](N)C(=O)O)c2ccccc21; NMe3Pal = CN[C@@H](Cc1cccnc1)C(=O)O; NMeF = CN[C@@H](Cc1ccccc1)C(=O)O; NMeE = CN[C@@H](CCC(=O)O)C(=O)O; Aad = N[C@@H](CCCC(=O)O)C(=O)O; CO = O=C([*:1])[*:2]; βAla = NCCC(=O)O

Each molecule was assayed against T1, Recombinant Human EphA2 Fc Protein (Homo sapiens, UniProt P29317) (assay: SPR interaction analysis (Biacore T200), kinetics of peptides against EphA2). Conditions: Recombinant Human EphA2 Fc Protein captured by Human Antibody Capture kit; single-cycle kinetics; 25° C.; HBS-P+ buffer with 1% DMSO.
T1 construct: purchased Elabscience
Type: binding
Procedure: Example 14 Interaction Analysis by SPR was Performed Using Biacore (Cytiva)
SPR assay was performed using Biacore T200 (Cytiva).
The HBS-P+ buffer (10 mM HEPES (pH7.4), 150 mM NaCl, 0.05% (v/V) Surfactant P20) containing 1% DMSO was used as running buffer. Recombinant Human EphA2 Fc Protein (Fc tag, Elabscience) was captured by Human Antibody Capture kit (Cytiva). Peptide samples in DMSO were diluted with running buffer, and prepared five serial dilutions. Using these serial dilutions, kinetics of peptides against EphA2 was measured at a flow rate of 30 mL/min at 25° C. The method adopted for sample measurement was a single-cycle kinetics method. The analysis was conducted using the evaluation software 3.0 provided with Biacore T200. Kinetics fitting was done on the difference data obtained by subtracting the baseline data from sample measurement data. KD values were calculated based on the association rate constant (ka) and dissociation rate constant (kd).

Kd [nM] | Compound
1 to 10 | CC(C)C[C@@H]1NC(=O)[C@H](CC(N)=O)NC(=O)[C@H](Cc2ccccc2)N(C)C(=O)[C@@H](C)NC(=O)CSC[C@@H](C(N)=O)NC(=O)[C@H](CCC(=O)O)NC(=O)[C@H]([C@@H](C)O)NC(=O)[C@H](Cc2cn(C)c3ccccc23)NC(=O)[C@H](C(C)C)NC(=O)[C@H](Cc2cn(C)c3ccccc23)NC(=O)[C@H](Cc2ccccc2)N(C)C(=O)[C@H](CCCC(=O)O)NC1=O [PDC_EphA2-00001417, da-MeF-N-L-Hgl-MeF-W1Me-V-W1Me-T-E-C-NH2] ({CH2CO}-[dA][NMeF]NL[Aad][NMeF][Trp(1-Me)]V[Trp(1-Me)]TEC-NH2; thioether N-12)
< 1 | CC(=O)NCCCC[C@@H](NC(=O)CCNC(=O)[C@@H]1CSCC(=O)N[C@H](C)C(=O)N(C)[C@@H](Cc2cccnc2)C(=O)N[C@@H](CC(N)=O)C(=O)N[C@@H](CC(C)C)C(=O)N[C@@H](CCCC(N)=O)C(=O)N(C)[C@@H](CCC(=O)O)C(=O)N[C@@H](Cc2cn(C)c3ccccc23)C(=O)N[C@@H](CCCCNC(=O)N2CCN(CC(=O)O)CC2)C(=O)N[C@@H](Cc2cn(C)c3ccccc23)C(=O)N[C@@H]([C@@H](C)O)C(=O)N[C@@H](CCCC(N)=O)C(=O)N1)C(N)=O [PDC_EphA2-00007196, da-Me3Py-N-L-Hgn-MeE-W1Me-KCOpipzaa-W1Me-T-Hgn-C-bA-dkAc-NH2] ({CH2CO}-[dA][NMe3Pal]NL[Aad](NH2)[NMeE][Trp(1-Me)]K([CO-Piperazinyl(4-CH2COOH)])[Trp(1-Me)]T[Aad](NH2)C[βAla][dK](Ac)-NH2; thioether N-12)
< 1 | CC(=O)NCCCC[C@@H](NC(=O)CCNC(=O)[C@@H]1CSCC(=O)N[C@H](C)C(=O)N(C)[C@@H](Cc2ccccc2)C(=O)N[C@@H](CC(N)=O)C(=O)N[C@@H](CC(C)C)C(=O)N[C@@H](CCCC(=O)O)C(=O)N(C)[C@@H](Cc2ccccc2)C(=O)N[C@@H](Cc2cn(C)c3ccccc23)C(=O)N[C@@H](C(C)C)C(=O)N[C@@H](Cc2cn(C)c3ccccc23)C(=O)N[C@@H]([C@@H](C)O)C(=O)N[C@@H](CCC(=O)O)C(=O)N1)C(N)=O [PDC_EphA2-00008082, da-MeF-N-L-Hgl-MeF-W1Me-V-W1Me-T-E-C-bA-dkAc-NH2] ({CH2CO}-[dA][NMeF]NL[Aad][NMeF][Trp(1-Me)]V[Trp(1-Me)]TEC[βAla][dK](Ac)-NH2; thioether N-12)
< 1 | CC(=O)NCCCC[C@@H](NC(=O)CCNC(=O)[C@@H]1CSCC(=O)N[C@H](C)C(=O)N(C)[C@@H](Cc2cccnc2)C(=O)N[C@@H](CC(N)=O)C(=O)C[C@@H](CC(C)C)C(=O)N[C@@H](CCCC(=O)O)C(=O)N(C)[C@@H](Cc2ccccc2)C(=O)N[C@@H](Cc2cn(C)c3ccccc23)C(=O)N[C@@H](C(C)C)C(=O)N[C@@H](Cc2cn(C)c3ccccc23)C(=O)N[C@@H]([C@@H](C)O)C(=O)N[C@@H](CCC(=O)O)C(=O)N1)C(N)=O [PDC_EphA2-00008083, da-Me3Py-N-L-Hgl-MeF-W1Me-V-W1Me-T-E-C-bA-dkAc-NH2] ({CH2CO}-[dA][NMe3Pal][X1][Aad][NMeF][Trp(1-Me)]V[Trp(1-Me)]TEC[βAla][dK](Ac)-NH2; thioether N-11)
1 to 10 | CC(=O)NCCCC[C@@H](NC(=O)CCNC(=O)[C@@H]1CSCC(=O)N[C@H](CCCCNC(=O)N2CCN(CC(=O)O)CC2)C(=O)N(C)[C@@H](Cc2cccnc2)C(=O)N[C@@H](CC(N)=O)C(=O)N[C@@H](CC(C)C)C(=O)N[C@@H](CCCC(=O)O)C(=O)N(C)[C@@H](Cc2ccccc2)C(=O)N[C@@H](Cc2cn(C)c3ccccc23)C(=O)N[C@@H](C(C)C)C(=O)N[C@@H](Cc2cn(C)c3ccccc23)C(=O)N[C@@H]([C@@H](C)O)C(=O)N[C@@H](CCC(=O)O)C(=O)N1)C(N)=O [PDC_EphA2-00008084, dkCOpipzaa-Me3Py-N-L-Hgl-MeF-W1Me-V-W1Me-T-E-C-bA-dkAc-NH2] ({CH2CO}-[dK]([CO-Piperazinyl(4-CH2COOH)])[NMe3Pal]NL[Aad][NMeF][Trp(1-Me)]V[Trp(1-Me)]TEC[βAla][dK](Ac)-NH2; thioether N-12)
1 to 10 | CC(=O)NCCCC[C@@H](NC(=O)CCNC(=O)[C@@H]1CSCC(=O)N[C@H](CCCCNC(=O)N2CCN(CC(=O)O)CC2)C(=O)N(C)[C@@H](Cc2cccnc2)C(=O)N[C@@H](CC(N)=O)C(=O)N[C@@H](CC(C)C)C(=O)N[C@@H](CCCCNC(=O)N2CCN(CC(=O)O)CC2)C(=O)N(C)[C@@H](Cc2ccccc2)C(=O)N[C@@H](Cc2cn(C)c3ccccc23)C(=O)N[C@@H](C(C)C)C(=O)N[C@@H](Cc2cn(C)c3ccccc23)C(=O)N[C@@H]([C@@H](C)O)C(=O)N[C@@H](CCC(=O)O)C(=O)N1)C(N)=O [PDC_EphA2-00008085, dkCOpipzaa-Me3Py-N-L-KCOpipzaa-MeF-W1Me-V-W1Me-T-E-C-bA-dkAc-NH2] ({CH2CO}-[dK]([CO-Piperazinyl(4-CH2COOH)])[NMe3Pal]NLK([CO-Piperazinyl(4-CH2COOH)])[NMeF][Trp(1-Me)]V[Trp(1-Me)]TEC[βAla][dK](Ac)-NH2; thioether N-12)
< 1 | CC(=O)NCCCC[C@@H](NC(=O)CCNC(=O)[C@@H]1CSCC(=O)N[C@H](CCCCNC(=O)N2CCN(CC(=O)O)CC2)C(=O)N(C)[C@@H](Cc2cccnc2)C(=O)N[C@@H](CC(N)=O)C(=O)N[C@@H](CC(C)C)C(=O)N[C@@H](CCCCNC(=O)N2CCN(CC(=O)O)CC2)C(=O)N(C)[C@@H](Cc2ccccc2)C(=O)N[C@@H](Cc2cn(C)c3ccccc23)C(=O)N[C@@H](C(C)C)C(=O)N[C@@H](Cc2cn(C)c3ccccc23)C(=O)N[C@@H]([C@@H](C)O)C(=O)N[C@@H](CCCC(N)=O)C(=O)N1)C(N)=O [PDC_EphA2-00008086, dkCOpipzaa-Me3Py-N-L-KCOpipzaa-MeF-W1Me-V-W1Me-T-Hgn-C-bA-dkAc-NH2] ({CH2CO}-[dK]([CO-Piperazinyl(4-CH2COOH)])[NMe3Pal]NLK([CO-Piperazinyl(4-CH2COOH)])[NMeF][Trp(1-Me)]V[Trp(1-Me)]T[Aad](NH2)C[βAla][dK](Ac)-NH2; thioether N-12)
< 1 | CC(=O)NCCCC[C@@H](NC(=O)CCNC(=O)[C@@H]1CSCC(=O)N[C@H](C)C(=O)N(C)[C@@H](Cc2cccnc2)C(=O)N[C@@H](CC(N)=O)C(=O)N[C@@H](CC(C)C)C(=O)N[C@@H](CCCC(=O)O)C(=O)N(C)[C@@H](Cc2ccccc2)C(=O)N[C@@H](Cc2cn(C)c3ccccc23)C(=O)N[C@@H](CCCCNC(=O)N2CCN(CC(=O)O)CC2)C(=O)N[C@@H](Cc2cn(C)c3ccccc23)C(=O)N[C@@H]([C@@H](C)O)C(=O)N[C@@H](CCC(=O)O)C(=O)N1)C(N)=O [PDC_EphA2-00008087, da-Me3Py-N-L-Hgl-MeF-W1Me-KCOpipzaa-W1Me-T-E-C-bA-dkAc-NH2] ({CH2CO}-[dA][NMe3Pal]NL[Aad][NMeF][Trp(1-Me)]K([CO-Piperazinyl(4-CH2COOH)])[Trp(1-Me)]TEC[βAla][dK](Ac)-NH2; thioether N-12)
< 1 | CC(=O)NCCCC[C@@H](NC(=O)CCNC(=O)[C@@H]1CSCC(=O)N[C@H](C)C(=O)N(C)[C@@H](Cc2cccnc2)C(=O)N[C@@H](CC(N)=O)C(=O)N[C@@H](CC(C)C)C(=O)N[C@@H](CCCCNC(=O)N2CCN(CC(=O)O)CC2)C(=O)N(C)[C@@H](Cc2ccccc2)C(=O)N[C@@H](Cc2cn(C)c3ccccc23)C(=O)N[C@@H](CCCCNC(=O)N2CCN(CC(=O)O)CC2)C(=O)N[C@@H](Cc2cn(C)c3ccccc23)C(=O)N[C@@H]([C@@H](C)O)C(=O)N[C@@H](CCC(=O)O)C(=O)N1)C(N)=O [PDC_EphA2-00008088, da-Me3Py-N-L-KCOpipzaa-MeF-W1Me-KCOpipzaa-W1Me-T-E-C-bA-dkAc-NH2] ({CH2CO}-[dA][NMe3Pal]NLK([CO-Piperazinyl(4-CH2COOH)])[NMeF][Trp(1-Me)]K([CO-Piperazinyl(4-CH2COOH)])[Trp(1-Me)]TEC[βAla][dK](Ac)-NH2; thioether N-12)
< 1 | CC(=O)NCCCC[C@H](NC(=O)[C@@H]1CSCC(=O)N[C@H](C)C(=O)N(C)[C@@H](Cc2cccnc2)C(=O)N[C@@H](CC(N)=O)C(=O)N[C@@H](CC(C)C)C(=O)N[C@@H](CCCCNC(=O)N2CCN(CC(=O)O)CC2)C(=O)N(C)[C@@H](Cc2ccccc2)C(=O)N[C@@H](Cc2cn(C)c3ccccc23)C(=O)N[C@@H](CCCCNC(=O)N2CCN(CC(=O)O)CC2)C(=O)N[C@@H](Cc2cn(C)c3ccccc23)C(=O)N[C@@H]([C@@H](C)O)C(=O)N[C@@H](CCC(=O)O)C(=O)N1)C(N)=O [PDC_EphA2-00008089, da-Me3Py-N-L-KCOpipzaa-MeF-W1Me-KCOpipzaa-W1Me-T-E-C-KAc-NH2] ({CH2CO}-[dA][NMe3Pal]NLK([CO-Piperazinyl(4-CH2COOH)])[NMeF][Trp(1-Me)]K([CO-Piperazinyl(4-CH2COOH)])[Trp(1-Me)]TECK(Ac)-NH2; thioether N-12)
< 1 | CC(=O)NCCCC[C@@H](NC(=O)[C@@H]1CSCC(=O)N[C@H](C)C(=O)N(C)[C@@H](Cc2cccnc2)C(=O)N[C@@H](CC(N)=O)C(=O)N[C@@H](CC(C)C)C(=O)N[C@@H](CCCCNC(=O)N2CCN(CC(=O)O)CC2)C(=O)N(C)[C@@H](Cc2ccccc2)C(=O)N[C@@H](Cc2cn(C)c3ccccc23)C(=O)N[C@@H](CCCCNC(=O)N2CCN(CC(=O)O)CC2)C(=O)N[C@@H](Cc2cn(C)c3ccccc23)C(=O)N[C@@H]([C@@H](C)O)C(=O)N[C@@H](CCC(=O)O)C(=O)N1)C(N)=O [PDC_EphA2-00008090, da-Me3Py-N-L-KCOpipzaa-MeF-W1Me-KCOpipzaa-W1Me-T-E-C-dkAc-NH2] ({CH2CO}-[dA][NMe3Pal]NLK([CO-Piperazinyl(4-CH2COOH)])[NMeF][Trp(1-Me)]K([CO-Piperazinyl(4-CH2COOH)])[Trp(1-Me)]TEC[dK](Ac)-NH2; thioether N-12)
